Test results from patent publication US10370355B2, “Tetrahydroisoquinoline derivatives” (UCB Biopharma SPRL, priority 2016, dated 2019).

Molecular target: T1, dopamine D1 receptor (Homo sapiens, UniProt P21728)
T1 construct: host or cells: LMtk (Ltk-) mouse fibroblast cells
Experiment: cAMP HTRF potentiation assay (presence of EC20 dopamine)
Format: cell-based
Settings: potentiation of cAMP in presence of EC20 dopamine (1.1 nM); LMtk (Ltk-) mouse fibroblast cells expressing the dopamine D1 receptor
Source text: The present assay allows to measure respectively the effects of compounds of the Examples in the absence of dopamine (“activation assay”) and the effects of compounds of the Examples in the presence of dopamine (“potentiation assay”).
The potentiation assay measures the ability of compounds to increase the levels of cAMP produced by a low-threshold concentration of dopamine. The concentration of dopamine used ([EC20]) is designed to produce 20% stimulation compared to the maximal response (100%) seen with increasing the concentration of dopamine. To measure this potentiation we incubate increasing concentrations of the compound with the [EC2O] of dopamine and measure the potentiation as increases in cAMP production. The pEC50 of a compound is the −log 10 of the concentration of the compound which produces 50% of the potentiation of the cAMP levels and the Erel is the relative efficacy, defined as the maximal % potentiation produced by the compound compared to the maximal response produced by increasing concentrations of dopamine (Erel of 1=dopamine maximum response).
Cells were cultured at 37° C. in a humidified atmosphere of 5% CO2. Cells were grown in DMEM-F12+GlutaMAX™-I medium (GIBCO®, Invitrogen, Merelbeke, Belgium) containing 10% fetal bovine serum (BioWhittaker®, Lonza, Verviers, Belgium), 400 μg/mL Geneticin (GIBCO®), 100 IU/mL Penicillin and 100 IU/mL Streptomycin (Pen-Strep solution, BioWhittaker®).
The measurement of changes in intracellular cyclic adenosinemonophopshpate (cAMP) was determined using the HTRF cAMP dynamic assay kit from CisBio (Codolet, France). Using homogenous time-resolved fluoresence technology, the assay is based on competition between native cAMP produced by cells and cAMP labelled with the dye d2. The tracer binding is determined by an anti-cAMP antibody labeled with cryptate. The effects of the compound alone (agonism) was determined by performing the assay in the absence of dopamine, whilst the effect of the compound as a positive allosteric modulator (PAM) was determined in the presence of an EC20 concentration of dopamine. Cells (20,000 per well) are incubated in 384 plates for 1 hour at room temperature in a final volume of 20 μLHBSS (Lonza, with calcium, magnesium and HEPES buffer 20 mM, pH 7.4) containing: isobutyl methylxanthine (Sigma, 0.1 mM final), varying concentrations of test compound (typically […] to 10^−4.5M) in the presence and absence of dopamine (1.1 nM final). The reaction is then terminated and the cells lysed by adding the d2 detection reagent in lysis buffer (10 microL) and the cryptate reagent in lysis buffer (10 microl) according to manufacturer's instructions. This is then incubated for a further 60 min at room temperature and changes in HTRF fluorescent emission ratio determined according to manufacturer's instructions using an Envision plate reader (Perkin Elmer, Zaventem, Belgium) with laser excitation. All incubations were performed in duplicate and results were compared to a concentration-effect curve to dopamine. (10^−11M to 10^−6M).
Data was analyzed using Excel and PRISM (GraphPad Software) to obtain pEC50 and Erel using the 4-parameter logistic equation (DeLean et al, 1978) where Erel is the fitted maximal response of the test compound minus basal expressed as a percentage relative to that obtained with dopamine which was defined as 100%.

T1 sequence (P21728 whole entry): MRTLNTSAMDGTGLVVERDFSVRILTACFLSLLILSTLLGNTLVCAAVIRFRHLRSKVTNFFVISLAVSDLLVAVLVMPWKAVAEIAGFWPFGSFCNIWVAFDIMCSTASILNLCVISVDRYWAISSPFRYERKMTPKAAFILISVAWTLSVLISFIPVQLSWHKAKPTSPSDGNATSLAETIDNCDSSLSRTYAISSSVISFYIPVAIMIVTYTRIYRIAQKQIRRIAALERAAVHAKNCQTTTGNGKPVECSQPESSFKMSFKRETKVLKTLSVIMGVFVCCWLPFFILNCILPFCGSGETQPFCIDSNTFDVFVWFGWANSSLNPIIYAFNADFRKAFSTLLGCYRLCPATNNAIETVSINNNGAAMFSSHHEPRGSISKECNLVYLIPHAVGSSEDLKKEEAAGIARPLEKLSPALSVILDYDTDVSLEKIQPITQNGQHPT

EC50: ≤ 31.6 nM
SMILES: C[C@H]1c2cccc([C@H](O)C(F)F)c2CCN1C(=O)Cc1c(Cl)ccn2ncc(Cl)c12 [Example 30, 2-(3,5-dichloropyrazolo[1,5-a]pyridin-4-yl)-1-[(1S)-5-[(1S)-2,2-difluoro-1-hydroxy-ethyl]-1-methyl-3,4-dihydro-1H-isoquinolin-2-yl]ethanone]
